# Reference: the OligoGym collection
# After the bases stand the sugars from the 5' end (letter, count) and the backbone: PS all phosphorothioate, else s phosphorothioate and o phosphodiester by linkage. Methylation of C is not given here. l = locked nucleic acid (LNA); d = 2'-deoxy (DNA)
# Biological target: SNHG14
# Settings: ASO
# [1] = Mouse Primary Neuronal Cell, 0.005 µM
Sequence,"target mRNA inhibition (Human Neuronal Cell, 0.2 µM)","target mRNA inhibition (Human Neuronal Cell, 1 µM)","target mRNA inhibition (Human Neuronal Cell, 7.5 µM)",other results
"TATAGACCCAAACTAT (sugars l3 d10 l3, PS)",15%,26%,,
"TATCTCATTTACATTATT (sugars l4 d12 l2, PS)",27%,43%,,
"TATTCTTACCGTCTTTA (sugars l3 d11 l3, PS)",40%,63%,,
"TATTGATTCAATTCCCT (sugars l2 d2 l1 d10 l2, PS)",,,55%,
"TATTGATTCAATTCCCT (sugars lldldddddddddldll, PS)",,,69%,
"TCACACCTATTATATAA (sugars l3 d11 l3, PS)",11%,16%,,
"TCACTGTTCTGACTTT (sugars l3 d10 l3, PS)",19%,18%,,"target mRNA inhibition (Human Neuronal Cell, 5 µM): 28%"
"TCACTTTCCAGATATCA (sugars l2 d13 l2, PS)",23%,-6%,,"target mRNA inhibition (Human Neuronal Cell, 5 µM): 17%; target mRNA inhibition [1]: 46.6%"
"TCACTTTCCAGATATCA (sugars l4 d11 l2, PS)",17%,5%,,"target mRNA inhibition (Human Neuronal Cell, 5 µM): 15%; target mRNA inhibition [1]: 92%"
"TCATATTGAACCAATT (sugars l4 d10 l2, PS)",59%,71%,,
"TCATCCCTCCAAGAAA (sugars l4 d10 l2, PS)",-12%,-17%,,"target mRNA inhibition (Human Neuronal Cell, 5 µM): -46%"
"TCCATTTATTTCCATTTAT (sugars ldldlldddddddldddll, PS)",,,55%,
"TCCATTTATTTCCATTTATT (sugars l2 d11 l2 d3 l2, PS)",,,58%,
"TCTCAAAGATCATTCT (sugars l4 d10 l2, PS)",54%,62%,,
"TCTCAAAGATCATTCTC (sugars l3 d11 l3, PS)",57%,63%,,
"TCTCAGCTTCTTCAAAT (sugars l2 d12 l3, PS)",26%,23%,,
"TCTCCAACATAGATCCT (sugars l4 d11 l2, PS)",33%,46%,,
"TCTGTATACACCATCCC (sugars l1 d11 l1 d2 l2, PS)",,,54%,
"TCTGTATACACCATCCC (sugars l2 d10 l1 d2 l2, PS)",,,61%,
"TCTTTCCATTTATTTCCATT (sugars l2 d3 l1 d11 l3, PS)",,,56%,
"TCTTTGACATTCCATCTC (sugars l4 d12 l2, PS)",49%,56%,,
"TGAAAATCTCAACTACCAT (sugars l1 d3 l2 d10 l3, PS)",,,43%,
"TGAAAATCTCAACTACCAT (sugars l1 d11 l1 d2 l4, PS)",,,24%,

Sequence,"target mRNA inhibition (Human Neuronal Cell, 0.2 µM)","target mRNA inhibition (Human Neuronal Cell, 1 µM)","target mRNA inhibition (Human Neuronal Cell, 7.5 µM)",other results
"TGAAAATCTCAACTACCAT (sugars lddldlddddddldddlll, PS)",,,19%,
"TGAAACATTCTTCCCAC (sugars l2 d12 l3, PS)",11%,13%,,
"TGCAAATACCTCTTCA (sugars l4 d10 l2, PS)",64%,69%,,
"TGTACTTACACATCTA (sugars l3 d10 l3, PS)",42%,34%,,
"TGTTTATACCCTTTCCAA (sugars l1 d12 l2 d1 l2, PS)",,,58%,
"TGTTTATACCCTTTCCAA (sugars lddlddddddddlddlll, PS)",,,61%,
"TGTTTATACCCTTTCCAA (sugars lldldlddddddldddll, PS)",,,54%,
"TGTTTCCATCTACTATTA (sugars lddddlddddddddldll, PS)",,,62%,
"TGTTTCCATCTACTATTA (sugars lddddldddddddlddll, PS)",,,62%,
"TGTTTCCATCTACTATTA (sugars lddldlddddddddddll, PS)",,,59%,
"TTAAGCTTTCACCTAT (sugars l2 d10 l4, PS)",37%,54%,,
"TTACACTTAATTATACTTCC (sugars ldddldldddddddllddll, PS)",,,62%,
"TTACACTTAATTATACTTCC (sugars lddlldldddddddddddll, PS)",,,68%,
"TTACACTTAATTATACTTCC (sugars ldldldldddddddddldll, PS)",,,65%,
"TTACCTACATCTCATACTT (sugars l2 d15 l2, PS)",-5%,-7%,,"target mRNA inhibition (Human Neuronal Cell, 5 µM): 7%; target mRNA inhibition [1]: 79%"
"TTATACCTTTCTTTAACCCT (sugars l1 d5 l1 d11 l2, PS)",,,59%,
"TTATACCTTTCTTTAACCCT (sugars ldddldldddddddldddll, PS)",,,62%,
"TTATACCTTTCTTTAACCCT (sugars ldldddddddddddddldll, PS)",,,53%,
"TTATACCTTTCTTTAACCCT (sugars ldlddddddddddlddddll, PS)",,,60%,
"TTATAGCCATTCTATCT (sugars l1 d1 l1 d10 l4, PS)",,,55%,
"TTATAGCCATTCTATCT (sugars l1 d1 l2 d11 l2, PS)",,,66%,
"TTATAGCCATTCTATCT (sugars l2 d10 l2 d1 l2, PS)",,,56%,
"TTATAGCCATTCTATCT (sugars l2 d11 l1 d1 l2, PS)",,,56%,

Sequence,"target mRNA inhibition (Human Neuronal Cell, 0.2 µM)","target mRNA inhibition (Human Neuronal Cell, 1 µM)","target mRNA inhibition (Human Neuronal Cell, 7.5 µM)",other results
"TTATAGCCATTCTATCT (sugars l3 d10 l1 d1 l2, PS)",,,59%,
"TTATAGCCATTCTATCT (sugars ldddldddddddlddll, PS)",,,31%,
"TTATAGCCATTCTATCT (sugars ldddlddddddllddll, PS)",,,16%,
"TTATAGCCATTCTATCT (sugars lddlddddddddlddll, PS)",,,17%,
"TTATAGCCATTCTATCT (sugars lddldddddddldddll, PS)",,,36%,
"TTATAGCCATTCTATCT (sugars lddldddddddldllll, PS)",,,22%,
"TTATAGCCATTCTATCT (sugars lddllddddddddldll, PS)",,,62%,
"TTATAGCCATTCTATCT (sugars lddllddddddldldll, PS)",,,15%,
"TTATAGCCATTCTATCT (sugars ldldddddddddldlll, PS)",,,53%,
"TTATAGCCATTCTATCT (sugars ldldlddddddldddll, PS)",,,47%,
"TTATAGCCATTCTATCT (sugars ldldlddddddlddlll, PS)",,,37%,
"TTATAGCCATTCTATCT (sugars ldlldddddddldddll, PS)",,,43%,
"TTATAGCCATTCTATCT (sugars ldlldddddddlddlll, PS)",,,21%,
"TTATAGCCATTCTATCT (sugars lldddddddddldldll, PS)",,,56%,
"TTATAGCCATTCTATCT (sugars llddlddddddldddll, PS)",,,45%,
"TTATAGCCATTCTATCT (sugars lldldddddddldddll, PS)",,,59%,
"TTATAGCCATTCTATCT (sugars lldldddddddldldll, PS)",,,26%,
"TTATAGCCATTCTATCT (sugars lllddddddddldldll, PS)",,,44%,
"TTATTTCCATTTATTTTCA (sugars lddlldddddddldldlll, PS)",,,69%,
"TTCAAGAATTCTCTCC (sugars l2 d10 l4, PS)",46%,50%,,
"TTCAGCTTTTAACCAGAGTG (sugars l2 d15 l3, PS)",,,73%,
"TTCCAGCTTATTTACCT (sugars l3 d12 l2, PS)",41%,26%,,
"TTCCATTTATTTCCATTTAT (sugars ldddlddddddddddlldll, PS)",,,55%,

Sequence,"target mRNA inhibition (Human Neuronal Cell, 0.2 µM)","target mRNA inhibition (Human Neuronal Cell, 1 µM)","target mRNA inhibition (Human Neuronal Cell, 7.5 µM)",other results
"TTCTACTAAACATACAC (sugars l3 d11 l3, PS)",40%,49%,,
"TTCTACTATACTTTCCTCT (sugars ldddldddddddddlddll, PS)",,,57%,
"TTCTACTATACTTTCCTCT (sugars ldldddddddddlddddll, PS)",,,59%,
"TTCTGTATACACCATCC (sugars l1 d3 l1 d10 l2, PS)",,,50%,
"TTCTGTATACACCATCC (sugars l1 d12 l4, PS)",,,51%,
"TTCTGTATACACCATCC (sugars ldddldddddddldlll, PS)",,,58%,
"TTCTGTATACACCATCC (sugars lddldddddddddldll, PS)",,,57%,
"TTCTGTATACACCATCCC (sugars ldlddddddddddlddll, PS)",,,63%,
"TTCTGTTTCCATTTACA (sugars l4 d11 l2, PS)",43%,39%,,
"TTGATTCAATTCCCTT (sugars l2 d10 l4, PS)",67%,72%,,
"TTGATTCAATTCCCTTA (sugars l1 d2 l1 d9 l4, PS)",,,69%,
"TTGATTCAATTCCCTTA (sugars l2 d9 l1 d3 l2, PS)",,,60%,
"TTGATTCAATTCCCTTA (sugars ldddlddddddldldll, PS)",,,48%,
"TTGATTCAATTCCCTTA (sugars ldldlddddddddldll, PS)",,,59%,
"TTGCTTCCAATTTATTT (sugars l4 d11 l2, PS)",25%,44%,,
"TTTACACTTAATTATACT (sugars l2 d12 l4, PS)",7%,6%,,
"TTTACACTTAATTATACTTC (sugars l6 d7 l1 d4 l2, PS)",,,58%,
"TTTACTCTGCAATACAC (sugars l3 d11 l3, PS)",41%,56%,,
"TTTACTGTCAACTCCT (sugars l2 d10 l4, PS)",51%,57%,,
"TTTATACCTTTCTTTAACCC (sugars l1 d12 l1 d4 l2, PS)",,,17%,
